According to patent publication US20250051409A1, “MODULATORS OF PHOSPHATIDYLSERlNE DECARBOXYLASE AND USE THEREOF” (THE NATIONAL INSTITUTE FOR BIOTECHNOLOGY IN THE NEGEV LTD., priority 2021, published 2025):
pKd: −log10 of the molar value. Square brackets hold non-standard residues; d marks the D form. Ends that are not written are not given here. Peptide text beside a SMILES is read from it. Dmt = Cc1cc(O)cc(C)c1C[C@H](N)C(=O)O; Orn = NCCC[C@H](N)C(=O)O

How the values were obtained:
SMAC = assay: IF staining of peptide-treated tumor sections, SMAC; type: in vivo, nude mice; conditions: peptide-treated A549 tumors
Description: (§1) Sections of paraffin-embedded control and peptide treated tumors were IF stained using specific antibodies and subjected to quantification. Relative staining intensity for the nuclear proliferation marker, Ki-67 (and its (A), SMAC (B) and NF-kB (C). Results represent the means±SEM (n=3) ***P≤0.001. (G) Sections from the indicated tumors were stained with H & E, with some areas were magnified.
(§2) In order to reduce non-specific binding, sections were incubated in 10% normal goat serum for 2 h, then incubated with primary antibodies (Table 1) overnight at 4° C. […] Sections were washed with water, counterstained with hematoxylin, and mounted with Vectashield mounting medium (Vector Laboratories, Burlingame, CA).

NF-κB = assay: IF staining of peptide-treated tumor sections, NF-κB; type: in vivo, nude mice; conditions: peptide-treated A549 tumors, immunofluorescence
Description: as §1, §2

A549 cell xenografts [1] = system: A549 cell xenografts
Description: (§4) A549 cells were S.C. inoculated into female nude mice (7×10^6 cells/mouse). Tumors sizes were measured (using a digital caliper) and volumes were calculated. When tumors volumes reached 60-100 mm3 (day 12), the mice were divided into 2 groups and xenografts were untreated (●) or treated with HtrA2/Omi-derived D-amino acid peptide targeted to the mitochondria (D-HTRA2-M, o). The tumors were injected 3 times a week to a final concentration of 50 μM. […] Tumors of A549 cell xenografts were dissected, photographed (B) and weighted (C). […] Results represent the means±SEM (n=8), **P≤0.01, ***P≤0.001.
(§5) A549 cells were inoculated subcutaneously into female nude mice (7×10^6 cells/mouse). Tumors sizes were measured (using a digital caliper) and volumes were calculated. When tumors volumes reached 60-100 mm3 (day 12), the mice were divided into 2 groups (control and treatment) and in the treatment group xenografts were treated with HtrA2/Omi-derived D-amino acid peptide (SEQ ID NO:35) targeted to the mitochondria. The tumors were injected 3 times a week to a final concentration of 50 μM or the peptide was administered by intravenous injection 2 times a week to a final concentration of 20 mg/kg. Tumors of A549 cell xenografts were dissected, photographed and weighted.

[2] = biological target: T1, phosphatidylserine decarboxylase (PSD) (Homo sapiens, UniProt Q9UG56); assay: MST binding of synthetic peptides to fluorescently-labelled purified PSD; conditions: PSD 0.25 μM, peptide 1-10 μM, 30 min at 37° C.
T1 construct: Purified recombinant protein (full length) of human phosphatidylserine decarboxylase (PSD); His tag (N); purchased Acris-OriGene; host or cells: E. coli
T1 sequence (Q9UG56 53-409): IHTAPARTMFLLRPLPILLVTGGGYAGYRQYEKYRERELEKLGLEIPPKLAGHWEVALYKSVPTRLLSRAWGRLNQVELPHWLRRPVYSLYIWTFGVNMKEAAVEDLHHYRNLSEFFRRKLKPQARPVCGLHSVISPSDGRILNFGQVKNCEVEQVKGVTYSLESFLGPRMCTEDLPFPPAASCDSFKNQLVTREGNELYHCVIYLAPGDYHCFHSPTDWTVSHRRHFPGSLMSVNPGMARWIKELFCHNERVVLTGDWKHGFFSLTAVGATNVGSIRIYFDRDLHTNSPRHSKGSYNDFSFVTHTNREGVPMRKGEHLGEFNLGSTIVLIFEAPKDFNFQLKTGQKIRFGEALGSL

[3] = biological target: T1, phosphatidylserine decarboxylase (PSD); assay: Peptide array blotted with PSD preincubated with peptide; type: binding; conditions: PSD 0.15 μM, peptide 20 μM
Description: (A) Schematic presentation of peptide array and detection of their interaction with SMAC. (B) Glass-bound peptide array consisting of overlapping peptides derived from […] SMAC-interacting proteins were incubated overnight with purified SMAC (0.3 μM) and then blotted with anti-SMAC antibodies (1:1000), followed by incubation with HRP-conjugated anti-mouse IgG and detection using a chemiluminescence kit. Dark spots represent binding of SMAC to peptides derived from SMAC-interacting proteins. (C) SMAC (0.3 μM) was incubated with purified PSD (0.4 μM) and blotted as in (B). The peptide spots where PSD prevented interaction with SMAC are circled. (D) Schematic presentation of peptide array and detection of their interaction with PSD. (E) Peptide array was blotted with purified PSD (0.15 μM) and then with anti-PSD antibodies as in (B). […]
Customized 768-peptide sequences derived from 11 SMAC-interacting proteins produced by INTAVIS Peptide Services (GmbH & Co. KG, Tubingen, Germany) were arrayed on a glass slide. […] Following extensive slide washing with Tris-buffered saline containing 0.05% Tween-20, SMAC or PSD binding was detected using anti-SMAC or anti-PSD antibodies and HRP-conjugated anti-rabbit or anti-mouse IgG as a secondary antibody. […]

A-549 cells = assay: Cell death on DSB-3 staining; type: cell-based, human; conditions: data not shown
Description: A549 and A549-SMAC-KO cells were seeded on sterile cover slips in 24-well cell culture plates (75,000 cells/well) and allowed to adhere for 24 h. MitoTracker® (250 nM in DMEM+10% FBS) was added, and plates were incubated in a CO2 incubator for 30 min at 37° C. Cells were washed with PBS and incubated with DSB3 (10 μM in reaction buffer; 40 mM NaCl, 1 mM KPO4, pH 7.4) in a C02 incubator for 2 h. Cells were washed with PBS, fixed with 4% PFA for 20 min at room temperature, washed with PBS, and stained with DAPI for 20 min at room temperature. Cover slips were washed with PBS and mounted with Vectashield, and imaging was done using confocal microscopy (Olympus 1X81).

A549 cell xenografts [4] = conditions: tumors injected 3 times a week, final concentration 50 μM
Description: as §4, §5

[5] = system: A549 lung cancer tumor xenograft; assay: A549 xenograft tumor growth under si-hSMAC-A; type: in vivo, athymic nude mice
Text: (§3) Treatment was initiated when the average tumor volume in each group reached ˜50 mm^3. Results are presented as the mean tumor volume±SEM. […] Scale bars represent 50, 25 or 15 μm as indicated. […] Results are the means±SEM.
Male athymic nude mice (6-8 weeks old) were obtained from Envigo and were kept in Ben-Gurion University (Israel) animal facility in temperature-controlled rooms and provided with water and food pellets ad libitum. Lung cancer A549 (3×10^6) cells were implanted subcutaneously on the dorsal flanks. Tumor growth was recorded using digital calipers, and volumes were calculated using formula […] (L=length; W=width). Mice were divided randomly into three groups once the average tumor volume reached ˜80 mm^3, and were treated subcutaneously with si-NT (group 1) or si-hSMAC (group 2-350 nM group 3-700 nM final concentration) mixed with JetPEI reagent three times a week. Mice were sacrificed at the end of experiment, and the tumors were excised and processed for immunohistochemistry or frozen in liquid nitrogen for immunoblotting and RNA isolation. All procedures involving mice were approved by the Institutional Animal Care and Use Committee.

SMAC/Diablo = SMAC/Diablo level in si-hSMAC-A treated tumors (immunoblot, IHC); type: in vivo, athymic nude mice; conditions: relative to si-NT-TTs
Description: as §3, §2
Cells were harvested and washed twice with ice-cold PBS, and the pellets were lysed on ice for 30 min in a lysis buffer (50 mM Tris-HCl, pH 7.5, 150 mM NaCl, 1 mM EDTA, 1.5 mM MgCl2, 10% glycerol, 1% Triton X-100), freshly supplemented with a protease inhibitor cocktail (Calbiochem), incubated on ice for 20 min and centrifuged thereafter (10 min, 12000 g). The protein concentration of the supernatant was determined and […] were stored at −80° C. until used for gel electrophoresis and immunoblotting. Protein samples (10-20 μg) were subjected to SDS-PAGE and immunoblotting, using the selected primary antibodies, followed by incubation with HRP-conjugated secondary antibodies. HRP activity was determined using enhanced chemiluminescent substrate (Pierce Chemical, Rockford, IL). Band intensity was quantified using FUSION-FX (Vilber Lourmat, France).

Ki-67 = Ki-67 IHC in si-hSMAC-A treated tumors; type: in vivo, athymic nude mice
Description: as §3, §2

[6] = system: A549 lung cancer tumor xenograft; assay: TUNEL staining of si-hSMAC-A treated tumors; type: in vivo, athymic nude mice; conditions: data not shown
[7] = system: total phospholipids (PLs), PC, and PE; assay: PL, PC and PE levels in si-hSMAC-A treated tumors; type: in vivo, athymic nude mice; conditions: relative to si-NT-TTs

Cc1cc(O)cc(C)c1C[C@H](NC(=O)[C@@H](CCCNC(=N)N)NC(=O)[C@@H](CC(C)C)NC(=O)[C@@H](CCCNC(=N)N)NC(=O)[C@@H](C)NC(=O)[C@@H](Cc1c[nH]c2ccccc12)NC(=O)[C@@H](CC(C)C)NC(=O)[C@@H](CO)NC(=O)[C@H]1CCCN1C(=O)[C@H](NC(=O)CNC(=O)[C@@H](Cc1ccc(O)cc1)NC(=O)[C@H](NC(=O)[C@H](NC(=O)[C@@H](CCCNC(=N)N)NC(=O)[C@@H](C)NC(=O)[C@@H](CCCNC(=N)N)NC(=O)[C@H]1CCCN1C(=O)[C@@H](CC(=O)O)NC(=O)[C@@H](CO)NC(=O)[C@H](NC(=O)CNC(=O)[C@@H](CO)NC(=O)[C@H](NC(=O)[C@@H](CC(C)C)NC(=O)[C@@H](CC(C)C)NC(=O)[C@@H](C)N)[C@H](C)O)[C@H](C)O)C(C)C)[C@H](C)O)[C@H](C)O)C(=O)N[C@@H](CCCN)C(=O)N[C@@H](Cc1ccccc1)C(N)=O [1C11-HTRA2-All-D-Mito] (H-[dA][dL][dL][dT][dS]G[dT][dS][dD][dP][dR][dA][dR][dV][dT][dY]G[dT][dP][dS][dL][dW][dA][dR][dL][dR][Dmt][Orn]F-NH2; N-terminus and C-terminus assumed)
decrease in expression of SMAC in tumors (SMAC): 80% | decrease in NF-κB expression in tumors (NF-κB): ~90% | tumor growth (A549 cell xenografts [1]; intravenously, 20 mg/kg): inhibits tumor growth | decrease of tumor weight (A549 cell xenografts [1]; intravenously, 20 mg/kg, 2 times a week): 50% | inhibition of tumor growth (A549 cell xenografts [1]; mouse, in vivo, iv): 50%

ALLTSGTSDPRARVTYGTPSLWARL [1C11]
pKd [2]: 5.52 | PSD interaction with array peptides after pre-incubation of PSD with the peptide [3]: eliminate PSD interaction with most peptides

Distyrylbenzene-bis-aldehyde [DSB-3]
cell death (A-549 cells): induces no cell death

SEQ ID NO:35: HtrA2/Omi-derived D-amino acid peptide targeted to the mitochondria ([dA][dL][dL][dT][dS]G[dT][dS][dD][dP][dR][dA][dR][dV][dT][dY]G[dT][dP][dS][dL][dW][dA][dR][dL])
decrease in tumor weight (A549 cell xenografts [4]): up to 80% | increase of tumor volume (A549 cell xenografts [4]; after 28 days): about 4 fold

si-hSMAC-A: Human SMAC/Diablo-specific siRNA, sense SEQ ID NO:33 and anti-sense SEQ ID NO:34 (sense AAGCGGUGUUUCUCAGAATTGTT; antisense AACAAUUCUGAGAAACCCGCTT; chemistry not given here)
tumor volume reduction relative to si-NT-treated tumors ([5]; si-hSMAC-A at 350 nM): 50% | tumor volume reduction relative to si-NT-treated tumors ([5]; si-hSMAC-A at 700 nM): 85% | decrease of SMAC/Diablo level in treated tumors (SMAC/Diablo): 75% | expression of Ki-67 in treated tumors (Ki-67): highly reduced | cell death in treated tumors [6]: No cell death was detected | decrease of PC in treated tumors [7]: 65% | decrease of PLs in treated tumors [7]: 50% | increase of PE in treated tumors [7]: 200%
